From patent US10640545B2 (THE GOVERNORS OF THE UNIVERSITY OF ALBERTA, priority 2017, dated 2020)
Where a SMILES comes first, the peptide text is derived from it. [ ]: non-standard residue; d: D form. The star is where a group is joined. Phe(4-Br) = N[C@@H](Cc1ccc(Br)cc1)C(=O)O; Palmitoyl = CCCCCCCCCCCCCCCC(=O)*; NMeL = CN[C@@H](CC(C)C)C(=O)O; Nle = CCCC[C@H](N)C(=O)O; Aib = CC(C)(N)C(=O)O

What was measured:
[1] = target: T1, recombinant human APJ-Ga16 receptor (Homo sapiens, UniProt P35414); experiment: Ca2+ mobilization assay (FLIPR, Chem-5-APJ cells); assay type: cell-based; conditions: among peptides 56-59
T1 construct: host or cells: Chem-5-APJ cells
T1 sequence (P35414 1-380): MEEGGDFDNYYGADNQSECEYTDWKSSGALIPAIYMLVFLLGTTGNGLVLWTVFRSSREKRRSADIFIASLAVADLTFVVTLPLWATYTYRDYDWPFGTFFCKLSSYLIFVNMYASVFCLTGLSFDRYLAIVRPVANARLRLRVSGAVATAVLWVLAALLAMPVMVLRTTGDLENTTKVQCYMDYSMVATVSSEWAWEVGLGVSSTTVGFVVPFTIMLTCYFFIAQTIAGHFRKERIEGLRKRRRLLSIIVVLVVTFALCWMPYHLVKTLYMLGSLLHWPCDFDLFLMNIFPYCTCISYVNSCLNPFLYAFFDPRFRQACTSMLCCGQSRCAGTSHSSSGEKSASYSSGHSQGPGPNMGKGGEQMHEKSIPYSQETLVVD
Method: To study the extent to which the newly derived peptides trigger APJ-receptor activation, a fluorescence coupled calcium release assay including a recombinant human APJ-Ga16 receptor cell line was used.
Chem-5-APJ cells (Millipore, USA) were seeded (30 000 cells/well) into Nunclon Delta Surface 96-well, clear-bottom microtitre plates (Thermo Scientific, Denmark) 24 hours prior to assay. Cells were loaded for 1 hour with FLIPR Calcium 6-QF fluorescent indicator dye (Molecular Devices, USA) in assay buffer [Hanks balanced salt solution (HBSS), 20 mM HEPES, 0.2% DMSO, 2.5 mM probenecid, pH 7.6], washed three times with assay buffer, then returned to the incubator for 10 min before assay on a fluorimetric imaging plate reader (FLIPR; Molecular Devices, Sunnyvale, Calif., USA). Maximum change in fluorescence over baseline was used to determine agonist response. Dose—response curve data were fitted to a four-parameter logistic equation using PRISM (Graph Pad, USA) from which pEC50 values were calculated. FIGS. 14A-G show the concentration response curves of apelin peptides.

anesthetized mice = experiment: Blood pressure assay in anesthetized mice; assay type: in vivo; conditions: 1.4 μM/kg body weight injected
In short: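 Mice were anaesthetized with 1.5% isoflurane/oxygen and kept at 36 °C. Peptide (1.4 μM/kg body weight) or saline was injected via the right jugular vein. Arterial pressure and heart rate were recorded continuously through a catheter in the aorta via the right carotid artery over 60 min and reported as SBP, DBP, MABP and HR.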

Ca2+ mobilization (in words) [1]: lowest Ca^2+ mobilization
SMILES: CCCCCCCCCCCCCCCC(=O)N[C@@H](CCCCN)C(=O)N[C@@H](Cc1ccccc1)C(=O)N[C@@H](CCCNC(=N)N)C(=O)N[C@@H](CCCNC(=N)N)C(=O)N[C@@H](CCC(N)=O)C(=O)N[C@@H](CCCNC(=N)N)C(=O)N1CCC[C@H]1C(=O)N[C@@H](CCCNC(=N)N)C(=O)N(C)[C@@H](CC(C)C)C(=O)N[C@@H](CO)C(=O)N[C@@H](Cc1c[nH]cn1)C(=O)N[C@@H](CCCCN)C(=O)NCC(=O)N1CCC[C@H]1C(=O)N[C@@H](CCCC)C(=O)NC(C)(C)C(=O)N[C@@H](Cc1ccc(Br)cc1)C(=O)O [Peptide 58] (Palmitoyl-KFRRQRPR[NMeL]SHKGP[Nle][Aib][Phe(4-Br)]-OH; C-terminus assumed)
effect on heart rate (HR) (anesthetized mice): heart rate increasing effect is restored
